Data taken from US7291641B2, “Derivatives of heterocycles with 5 members, their preparation and their use as medicaments” (Societe de Conseils de Recherches et d'Applications …, priority 1999, dated 2007).

melting point	Structure (SMILES)
104 to 105 °C	CCCCOC(=O)NCCc1nc(-c2ccc(C(F)(F)F)cc2)c[nH]1 [Example 300, butyl 2-{4-[4-(trifluoromethyl)phenyl]-1H-imidazol-2-yl}ethylcarbamate]
140 to 142 °C	Fc1ccc(-c2c[nH]c([C@@H](NC3CCCCCC3)C3CCCCC3)n2)cc1 [Example 301, N-{(S)-cyclohexyl[4-(4-fluorophenyl)-1H-imidazol-2-yl]methyl}cycloheptanamine]
104 to 106 °C	CC(C)(C)c1ccc(-c2c[nH]c(CCNC(=O)OCC3CCCCC3)n2)cc1 [Example 302, cyclohexylmethyl 2-[4-(4-tert-butylphenyl)-1H-imidazol-2-yl]ethylcarbamate]
130 to 132 °C	O=C(NCCc1nc(-c2ccc(-c3ccc(Br)cc3)cc2)c[nH]1)OCC1CCCCC1 [Example 303, cyclohexylmethyl 2-[4-(4′-bromo-1.1′-biphenyl-4-yl)-1H-imidazol-2-yl]ethylcarbamate]
186 to 188 °C	FC(F)(F)c1cccc(-c2c[nH]c([C@@H](NC3CCCCC3)C3CCCCC3)n2)c1 [Example 304, N-((S)-cyclohexyl{4-[3-(trifluoromethyl)phenyl]-1H-imidazol-2-yl}methyl)cyclohexanamine]
143.9 °C	FC(F)(F)c1cccc(-c2c[nH]c([C@@H](NCC3CCCCC3)C3CCCCC3)n2)c1 [Example 305, (S)-1-cyclohexyl-N-(cyclohexylmethyl)-1-{4-[3-(trifluoromethyl)-phenyl]-1H-imidazol-2-yl}methanamine]
217 to 218 °C	Fc1ccc(-c2c[nH]c([C@@H](CC3CCCCC3)NC3CCCCC3)n2)cc1 [Example 309, N-{(1R)-2-cyclohexyl-1-[4-(4-fluorophenyl)-1H-imidazol-2-yl]ethyl}cyclohexanamine]
125 °C	CCCCOC(=O)NCCc1nc(-c2ccc(N3CCCC3)cc2)c[nH]1 [Example 313, butyl 2-[4-(4-pyrrolidin-1-ylphenyl)-1H-imidazol-2-yl]ethylcarbamate]
128.5 °C	O=C(NCCc1nc(-c2ccc(N3CCCC3)cc2)c[nH]1)OCC1CCCCC1 [Example 326, cyclohexylmethyl 2-[4-(4-pyrrolidin-1-ylphenyl)-1H-imidazol-2-yl]ethylcarbamate]
180.9 °C	CCCCOC(=O)NCCc1nc(-c2cc(C(C)(C)C)c(O)c(C(C)(C)C)c2)c[nH]1 [Example 330, butyl 2-[4-(3,5-ditert-butyl-4-hydroxyphenyl)-1H-imidazol-2-yl]ethylcarbamate]
158.7 °C	CC(C)COC(=O)NCCc1nc(-c2ccc(-c3ccc(Br)cc3)cc2)c[nH]1 [Example 338, isobutyl 2-[4-(4′-bromo-1,1′-biphenyl-4-yl)-1H-imidazol-2-yl]ethylcarbamate]
110.6 °C	CC(C)COC(=O)NCCc1nc(-c2ccc(C(C)(C)C)cc2)c[nH]1 [Example 339, isobutyl 2-[4-(4-tert-butylphenyl)-1H-imidazol-2-yl]ethylcarbamate]
103 °C	CC(C)(C)c1ccc(-c2c[nH]c(CCNC(=O)OCC3CCC3)n2)cc1 [Example 340, cyclobutylmethyl 2-[4-(4-tert-butylphenyl)-1H-imidazol-2-yl]ethylcarbamate]
127 to 130 °C	CC(C)(C)c1ccc(-c2c[nH]c(CCNC(=O)OC3CCCCC3)n2)cc1 [Example 342, cyclohexyl 2-[4-(4-tert-butylphenyl)-1H-imidazol-2-yl]ethylcarbamate]
176.5 °C	O=C(NCCc1nc(-c2ccc(-c3ccc(Br)cc3)cc2)c[nH]1)OCCCC(F)(F)F [Example 344, 4,4,4-trifluorobutyl 2-[4-(4′-bromo-1,1′-biphenyl-4-yl)-1H-imidazol-2-yl]ethylcarbamate]
157.3 °C	O=C(NCCc1nc(-c2ccc(-c3ccccc3)cc2)c[nH]1)OCCCC(F)(F)F [Example 345, 4,4,4-trifluorobutyl 2-[4-(1,1′-biphenyl-4-yl)-1H-imidazol-2-yl]ethylcarbamate]
128.3 °C	CC(C)CCCOC(=O)NCCc1nc(-c2ccc(-c3ccccc3)cc2)c[nH]1 [Example 378, 4-methylpentyl 2-[4-(1,1′-biphenyl-4-yl)-1H-imidazol-2-yl]ethylcarbamate]
119.2 °C	CC(C)(C)CCOC(=O)NCCc1nc(-c2ccc(N3CCCC3)cc2)c[nH]1 [Example 379, 3,3-dimethylbutyl 2-[4-(4-pyrrolidin-1-ylphenyl)-1H-imidazol-2-yl]ethylcarbamate]
128 to 130 °C	CC(C)CCOC(=O)NCCc1nc(-c2ccc(-c3ccccc3)cc2)c[nH]1 [Example 380, isopentyl 2-[4-(1,1′-biphenyl-4-yl)-1H-imidazol-2-yl]ethylcarbamate]
138 to 140 °C	CCCCCCOC(=O)NCCc1nc(-c2ccc(-c3ccc(Br)cc3)cc2)c[nH]1 [Example 381, hexyl 2-[4-(4′-bromo-1,1′-biphenyl-4-yl)-1H-imidazol-2-yl]ethylcarbamate]
173 °C	CC(C)(C)c1ccc(-c2c[nH]c(CCNC(=O)OCc3ccccc3)n2)cc1 [Example 382, benzyl 2-[4-(4-tert-butylphenyl)-1H-imidazol-2-yl]ethylcarbamate]

melting point	Structure (SMILES)
98.4 °C	CC(C)(C)CCOC(=O)NCCc1nc(-c2ccc(-c3ccccc3)cc2)c[nH]1 [Example 383, 3,3-dimethylbutyl 2-[4-(1,1′-biphenyl-4-yl)-1H-imidazol-2-yl]ethylcarbamate]
110 to 114 °C	CCCCCCOC(=O)NCCc1nc(-c2ccc(N3CCCC3)cc2)c[nH]1 [Example 384, hexyl 2-[4-(4-pyrrolidin-1-ylphenyl)-1H-imidazol-2-yl]ethylcarbamate]
148.3 °C	O=C(NCCc1nc(-c2ccc(N3CCCC3)cc2)c[nH]1)OCCCC(F)(F)F [Example 385, 4,4,4-trifluorobutyl 2-[4-(4-pyrrolidin-1-ylphenyl)-1H-imidazol-2-yl]ethylcarbamate]
197.4 °C	CCCCCCOC(=O)NCCc1nc(-c2cc(C(C)(C)C)c(O)c(C(C)(C)C)c2)c[nH]1 [Example 386, hexyl 2-[4-(3,5-ditert-butyl-4-hydroxyphenyl)-1H-imidazol-2-yl]ethylcarbamate]
116.8 °C	COc1ccc(-c2c[nH]c(CCNC(=O)OCCC(C)(C)C)n2)cc1 [Example 388, 3,3-dimethylbutyl 2-[4-(4-methoxyphenyl)-1H-imidazol-2-yl]ethylcarbamate]
177.5 °C	CC(C)(C)c1cc(-c2c[nH]c(CCNC(=O)OCc3ccccc3)n2)cc(C(C)(C)C)c1O [Example 389, benzyl 2-[4-(3,5-ditert-butyl-4-hydroxyphenyl)-1H-imidazol-2-yl]ethylcarbamate]
122.4 °C	O=C(NCCc1nc(-c2ccc(N3CCCC3)cc2)c[nH]1)OCc1ccccc1 [Example 390, benzyl 2-[4-(4-pyrrolidin-1-ylphenyl)-1H-imidazol-2-yl]ethylcarbamate]
142 to 143 °C	O=C(NCCc1nc(-c2ccc(-c3ccccc3)cc2)c[nH]1)OCCc1ccccc1 [Example 391, 2-phenylethyl 2-[4-(1,1′-biphenyl-4-yl)-1H-imidazol-2-yl]ethylcarbamate]
149.3 °C	CCCCOC(=O)NCCc1nc(-c2ccc(-c3ccc(F)cc3)cc2)c[nH]1 [Example 392, butyl 2-[4-(4′-fluoro-1,1′-biphenyl-4-yl)-1H-imidazol-2-yl]ethylcarbamate]
143 to 144 °C	CCCCOC(=O)NCCc1nc(-c2ccc(-c3ccccc3)cc2)c(C)[nH]1 [Example 393, butyl 2-[4-(1,1′-biphenyl-4-yl)-5-methyl-1H-imidazol-2-yl]ethylcarbamate]
168.4 °C	CCCCOC(=O)NCCc1nc(-c2ccc(-c3ccc(C)cc3)cc2)c[nH]1 [Example 394, butyl 2-[4-(4′-methyl-1,1′-biphenyl-4-yl)-1H-imidazol-2-yl]ethylcarbamate]
164.2 °C	CCCCOC(=O)NCCc1nc(-c2ccc(-c3ccc(Cl)cc3)cc2)c[nH]1 [Example 395, butyl 2-[4-(4′-chloro-1,1′-biphenyl-4-yl)-1H-imidazol-2-yl]ethylcarbamate]
113.8 °C	CCCCOC(=O)NCCc1nc(-c2ccc(-c3ccccc3F)cc2)c[nH]1 [Example 396, butyl 2-[4-(2′-fluoro-1,1′-biphenyl-4-yl)-1H-imidazol-2-yl]ethylcarbamate]
167.9 °C	CCCCOC(=O)NCCc1nc(-c2ccc(-c3ccc(SC)cc3)cc2)c[nH]1 [Example 397, butyl 2-{4-[4′-(methylthio)-1,1′-biphenyl-4-yl]-1H-imidazol-2-yl}ethylcarbamate]
142.6 °C	CCCCOC(=O)NCCc1nc(-c2ccc(-c3cccc(Cl)c3)cc2)c[nH]1 [Example 443, butyl 2-[4-(3′-chloro-1,1′-biphenyl-4-yl)-1H-imidazol-2-yl]ethylcarbamate]
141.5 °C	CCCCOC(=O)NCCc1nc(-c2ccc(-c3cccc(F)c3)cc2)c[nH]1 [Example 444, butyl 2-[4-(3′-fluoro-1,1′-biphenyl-4-yl)-1H-imidazol-2-yl]ethylcarbamate]
95.5 °C	CCCCOC(=O)NCCc1nc(-c2ccc(CC(C)C)cc2)c[nH]1 [Example 445, butyl 2-[4-(4-isobutylphenyl)-1H-imidazol-2-yl]ethylcarbamate]
125.2 °C	CC(C)Cc1ccc(-c2c[nH]c(CCNC(=O)OCc3ccccc3)n2)cc1 [Example 446, benzyl 2-[4-(4-isobutylphenyl)-1H-imidazol-2-yl]ethylcarbamate]
132.4 °C	CCCCOC(=O)NCCc1nc(-c2ccc(-c3ccc(F)c(Cl)c3)cc2)c[nH]1 [Example 447, butyl 2-[4-(3′-chloro-4′-fluoro-1,1′-biphenyl-4-yl)-1H-imidazol-2-yl]ethylcarbamate]
137.5 °C	CCCCOC(=O)NCCc1nc(-c2ccc(-c3ccc(Cl)c(Cl)c3)cc2)c[nH]1 [Example 448, butyl 2-[4-(3′,4′-dichloro-1,1′-biphenyl-4-yl)-1H-imidazol-2-yl]ethylcarbamate]
83.2 °C	CCCCOC(=O)NCCc1nc(-c2ccc(CCC)cc2)c[nH]1 [Example 449, butyl 2-[4-(4-propylphenyl)-1H-imidazol-2-yl]ethylcarbamate]
